The results in this text go back to ChEMBL document CHEMBL1136775, “Indole naphthyridinones as inhibitors of bacterial enoyl-ACP reductases FabI and FabK” (J Med Chem, 2003).

pIC50, pKi: −log10 of the molar value. In brackets after ≈: the same amount, converted by molar mass.

Test [1] is described as follows: Inhibitory activity against Enoyl-ACP reductase FabI in Haemophilus influenzae.
Test [2] deals with T1, Enoyl-[acyl-carrier-protein] reductase [NADPH] FabI (Staphylococcus aureus, UniProt Q6GI75).
T1 sequence (Q6GI75 whole entry): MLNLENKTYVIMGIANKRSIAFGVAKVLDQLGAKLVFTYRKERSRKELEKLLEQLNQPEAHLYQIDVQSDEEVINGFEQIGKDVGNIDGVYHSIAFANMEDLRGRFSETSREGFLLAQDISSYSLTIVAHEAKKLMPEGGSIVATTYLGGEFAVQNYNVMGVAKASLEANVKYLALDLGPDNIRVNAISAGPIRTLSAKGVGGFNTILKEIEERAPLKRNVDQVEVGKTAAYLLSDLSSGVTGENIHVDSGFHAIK
Nature of the test: Inhibitory activity against Enoyl-ACP reductase FabI in Staphylococcus aureus.

The test system of test [3] is Haemophilus influenzae. Nature of the test: Antibacterial activity against Haemophilus influenzae Q1. Type of test: functional.
In test [4] the test system is Staphylococcus aureus. Nature of the test: Antibacterial activity against Staphylococcus aureus WCUH29. The test is classed as functional.
For test [5], the system named is A549. Nature of the test: Cytotoxicity against human A549 lung cells. Type of test: functional, cell-based.
A short description of test [6]: Inhibitory activity against human FASI enzyme. The test is classed as functional.
For test [7], the system named is Liposome. Put plainly: Inhibitory activity in liposome lysis assay. Type of test: functional, subcellular, Homo sapiens.
Test [8] deals with Escherichia coli. Put plainly: Antibacterial activity against Escherichia coli 120AcrAB-. The test is classed as functional.
Test [9] concerns Enterococcus faecalis. Put plainly: Antibacterial activity against Enterococcus faecalis I. The test is classed as functional.
Test [10] can be described thus: Inhibitory activity against Enoyl-ACP reductase FabI in Escherichia coli. Type of test: functional.
Test [11] in a line: Inhibitory activity against Enoyl-ACP reductase FabK in Streptococcus pneumoniae. The test is classed as functional.
The test system of test [12] is Streptococcus pneumoniae. Nature of the test: Antibacterial activity against Streptococcus pneumoniae 1629. Type of test: functional.
For test [13], the system named is Moraxella catarrhalis. Put plainly: Antibacterial activity against Moraxella catarrhalis. Type of test: functional.
Test [14] relates to Staphylococcus aureus. Nature of the test: Inhibitory activity against Staphylococcus aureus. Type of test: functional.
Test [15] relates to Staphylococcus aureus. Put plainly: Antibacterial activity against in Staphylococcus aureus WCUH29. The test is classed as functional.

A word on the pIC50: it is the negative decadic logarithm of the IC50, by convention in mol/L. A higher pIC50 goes with a low IC50. On to `CC(=O)Nc1ccc(/C=C/C(=O)N(C)Cc2cc3ccccc3n2C)cn1`, for which the pIC50 was 5.89 in [1] and 6.52 in test [2]. The MIC50 in test [3] amounted to 32 µg/mL (≈ 88.3 µM); in test [4], 0.12 µg/mL (≈ 0.331 µM).

What is called IC50 is the concentration at which inhibition is half-maximal. A higher IC50 goes with lower potency. For `CN(Cc1cc2ccccc2n1C)C(=O)/C=C/c1ccc(N)nc1`, in test [5], the IC50 came to 512 µg/mL (≈ 1600 µM). Moreover, the values for the negative logarithm of the IC50 (pIC50) in test [1], in test [6] and in test [7] were 5.38, less than 4.00 and 3.20, respectively. Further, the MIC50 was more than 64 µg/mL in test [3] and 0.5 µg/mL (≈ 1.56 µM) in test [4].

Regarding `Cc1c(CN(C)C(=O)/C=C/c2cnc3c(c2)CCC(=O)N3)c2ccccc2n1C`, the MIC50 in test [8] was 32 µg/mL (≈ 82.4 µM); in test [9], more than 64 µg/mL; in [3] it was more than 64 µg/mL; in test [4], less than 0.001 µg/mL; in [12], more than 64 µg/mL; in test [13], less than 0.06 µg/mL. Moreover, the pIC50 in test [10] was 7.52; in test [1], 7.60; in test [2], 7.22; in test [11] it was less than 4.52.

Turning to `CN(Cc1cn(C)c2ccccc12)C(=O)/C=C/c1cnc2c(c1)CCC(=O)N2`, the MIC50 in [8] was 8 µg/mL (≈ 21.4 µM); in test [9], 16 µg/mL (≈ 42.7 µM); in [3] it was 16 µg/mL (≈ 42.7 µM); in test [4], 0.06 µg/mL (≈ 0.16 µM); in test [12], 16 µg/mL (≈ 42.7 µM); in test [13] it was less than 0.06 µg/mL. In addition, the pIC50 is 7.15 in [10], 6.41 in [1], 6.89 in test [2] and 5.30 in test [11].

Take `Cc1[nH]c2ccccc2c1CN(C)C(=O)/C=C/c1cnc2c(c1)CCC(=O)N2`: the MIC50 in test [8] was 0.5 µg/mL (≈ 1.34 µM); in test [9], 16 µg/mL (≈ 42.7 µM); in test [3] it was 1 µg/mL (≈ 2.67 µM); in test [4], 0.016 µg/mL (≈ 0.0427 µM); in test [12], 16 µg/mL (≈ 42.7 µM); in [13] it was less than 0.06 µg/mL. For the same compound, the pIC50 in test [10] is more than 7.22; in test [1] it was 6.89; in [2], 7.30; in [11], 5.52.

Regarding `CN(Cc1cc2ccccc2n1C)C(=O)/C=C/c1cnc2c(c1)CCCN2`, the pIC50 was 5.57 in test [1] and 5.64 in [2]. Also, the MIC50 in [3] was more than 64 µg/mL; in test [4], 0.5 µg/mL (≈ 1.39 µM).

For orientation: pKi means the Ki on a negative log10 scale, so that one unit is a factor of ten. Lower therefore signals a large Ki. For `CN(Cc1cc2ccccc2n1C)C(=O)/C=C/c1cnc2c(c1)CCC(=O)N2`, the pIC50 in test [1] was 6.25; in test [2], 7.30. For the same compound, the MIC50 in test [3] worked out at 32 µg/mL (≈ 85.5 µM); in test [4] it was 0.03 µg/mL (≈ 0.0801 µM). For the same compound, the pKi in test [14] is 8.37.

`Cc1cc(/C=C/C(=O)N(C)Cc2cc3ccccc3n2C)cnc1N`: the pIC50 in test [1] is 5.21; in [2], 6.04. In addition, the MIC50 is more than 64 µg/mL in [3] and 0.25 µg/mL (≈ 0.748 µM) in test [4].

Consider `CC(=O)Nc1ncc(/C=C/C(=O)N(C)Cc2cc3ccccc3n2C)cc1C`, for which the pIC50 in [1] is 5.12; in test [2] it was 6.03. In addition, the MIC50 is more than 64 µg/mL in [3] and 2 µg/mL (≈ 5.31 µM) in test [15].

With `Cc1cccc2c(CN(C)C(=O)/C=C/c3cnc4c(c3)CCC(=O)N4)c(C)n(C)c12`, the MIC50 in test [8] was more than 64 µg/mL; in test [9], more than 64 µg/mL; in test [3], more than 64 µg/mL; in test [4] it was less than 0.001 µg/mL; in test [12], more than 64 µg/mL; in test [13], 2 µg/mL (≈ 4.97 µM). Moreover, the pIC50 in [10] is more than 7.15; in test [1], 7.15; in test [2], 7.70; in [11], less than 4.52.

For `Oc1cc(Cl)ccc1Oc1ccc(Cl)cc1Cl` [TRICLOSAN], the MIC50 was 0.5 µg/mL (≈ 1.73 µM) in test [8]; 16 µg/mL (≈ 55.3 µM) in test [9]; 0.5 µg/mL (≈ 1.73 µM) in test [3]; 0.03 µg/mL (≈ 0.104 µM) in test [4]; 16 µg/mL (≈ 55.3 µM) in [12]; less than 0.06 µg/mL in test [13]. This compound gave a pIC50 in test [11] of less than 4.52.
